Experimental data taken from PubChem BioAssay (NCI).
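In this assay, cells in 96-well plates receive the compound at five concentrations for 48 hours. Endpoints are linearly interpolated between the surrounding concentrations. GI50 marks 50% less growth. TGI: total growth inhibition.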

Key:
Assay in all cases: NCI-60 cell line screen, 48 h
UACC-257 melanoma = tested on: UACC-257 melanoma
HCT-15 colon = tested on: HCT-15 colon
SF-295 CNS = tested on: SF-295 CNS
TK-10 renal = tested on: TK-10 renal
RPMI-8226 leukemia = tested on: RPMI-8226 leukemia
ACHN renal = tested on: ACHN renal
NCI-H226 lung = tested on: NCI-H226 lung
EKVX NSCLC = tested on: EKVX NSCLC
SK-OV-3 ovarian = tested on: SK-OV-3 ovarian
UO-31 renal = tested on: UO-31 renal
SW-620 colon = tested on: SW-620 colon
OVCAR-5 ovarian = tested on: OVCAR-5 ovarian
HL-60(TB) leukemia = tested on: HL-60(TB) leukemia
MALME-3M melanoma = tested on: MALME-3M melanoma
SF-539 CNS = tested on: SF-539 CNS
SNB-75 CNS = tested on: SNB-75 CNS
MOLT-4 leukemia = tested on: MOLT-4 leukemia
U251 CNS = tested on: U251 CNS
IGROV1 ovarian = tested on: IGROV1 ovarian
NCI-H522 lung = tested on: NCI-H522 lung
HT29 colon = tested on: HT29 colon
BT-549 breast = tested on: BT-549 breast
HS 578T breast = tested on: HS 578T breast
RXF 393 renal = tested on: RXF 393 renal
CAKI-1 renal = tested on: CAKI-1 renal
HCT-116 colon = tested on: HCT-116 colon
K-562 leukemia = tested on: K-562 leukemia
SK-MEL-5 melanoma = tested on: SK-MEL-5 melanoma
OVCAR-8 ovarian = tested on: OVCAR-8 ovarian
NCI/ADR-RES ovarian = tested on: NCI/ADR-RES ovarian
NCI-H460 lung = tested on: NCI-H460 lung
786-0 renal = tested on: 786-0 renal
T-47D breast = tested on: T-47D breast
PC-3 prostate = tested on: PC-3 prostate
KM12 colon = tested on: KM12 colon
SK-MEL-2 melanoma = tested on: SK-MEL-2 melanoma
A549 NSCLC = tested on: A549 NSCLC
HCC-2998 colon = tested on: HCC-2998 colon
SF-268 CNS = tested on: SF-268 CNS
SR leukemia = tested on: SR leukemia
A498 renal = tested on: A498 renal
MDA-MB-231 breast = tested on: MDA-MB-231 breast
HOP-62 NSCLC = tested on: HOP-62 NSCLC
LOX IMVI melanoma = tested on: LOX IMVI melanoma
SN12C renal = tested on: SN12C renal
NCI-H23 lung = tested on: NCI-H23 lung
SNB-19 CNS = tested on: SNB-19 CNS
COLO 205 colon = tested on: COLO 205 colon
UACC-62 melanoma = tested on: UACC-62 melanoma
MCF7 breast = tested on: MCF7 breast
HOP-92 NSCLC = tested on: HOP-92 NSCLC
CCRF-CEM leukemia = tested on: CCRF-CEM leukemia
OVCAR-4 ovarian = tested on: OVCAR-4 ovarian
OVCAR-3 ovarian = tested on: OVCAR-3 ovarian

COc1cc2ncn(-c3cc(O[C@H](C)c4ccccc4Cl)c(C(N)=O)s3)c2cc1OC
GI50 (UACC-257 melanoma): 2930 nM | TGI (UACC-257 melanoma): 15400 nM | GI50 (HCT-15 colon): 10.7 nM | TGI (HCT-15 colon): > 25000 nM | GI50 (SF-295 CNS): 12.7 nM | TGI (SF-295 CNS): > 25000 nM | GI50 (TK-10 renal): 414 nM | TGI (TK-10 renal): 4450 nM | GI50 (RPMI-8226 leukemia): 10.2 nM | TGI (RPMI-8226 leukemia): 3990 nM | GI50 (ACHN renal): 1040 nM | TGI (ACHN renal): > 25000 nM | GI50 (NCI-H226 lung): 228 nM | TGI (NCI-H226 lung): 6990 nM | GI50 (EKVX NSCLC): 87.2 nM | TGI (EKVX NSCLC): > 25000 nM | GI50 (SK-OV-3 ovarian): 9.7 nM | TGI (SK-OV-3 ovarian): 12700 nM | GI50 (UO-31 renal): 482 nM | TGI (UO-31 renal): 12100 nM | GI50 (SW-620 colon): 5.5 nM | TGI (SW-620 colon): 5570 nM | GI50 (OVCAR-5 ovarian): 13.9 nM | TGI (OVCAR-5 ovarian): > 23800 nM | GI50 (HL-60(TB) leukemia): 6.81 nM | TGI (HL-60(TB) leukemia): 3890 nM | GI50 (MALME-3M melanoma): 1710 nM | TGI (MALME-3M melanoma): 12300 nM | GI50 (SF-539 CNS): 10.9 nM | TGI (SF-539 CNS): 2740 nM | GI50 (SNB-75 CNS): 23.8 nM | TGI (SNB-75 CNS): 3590 nM | GI50 (MOLT-4 leukemia): 9.79 nM | TGI (MOLT-4 leukemia): 3760 nM | GI50 (U251 CNS): 16.1 nM | TGI (U251 CNS): > 25000 nM | GI50 (IGROV1 ovarian): 19.7 nM | TGI (IGROV1 ovarian): 12900 nM | GI50 (NCI-H522 lung): 6.56 nM | TGI (NCI-H522 lung): 2840 nM | GI50 (HT29 colon): 4.32 nM | TGI (HT29 colon): 4260 nM | GI50 (BT-549 breast): 88.8 nM | TGI (BT-549 breast): 4440 nM | GI50 (HS 578T breast): 65.2 nM | TGI (HS 578T breast): 804 nM | GI50 (RXF 393 renal): 9.47 nM | TGI (RXF 393 renal): 3530 nM | GI50 (CAKI-1 renal): 99.9 nM | TGI (CAKI-1 renal): 20800 nM | GI50 (HCT-116 colon): 10.2 nM | TGI (HCT-116 colon): 6440 nM | GI50 (K-562 leukemia): 8.74 nM | TGI (K-562 leukemia): > 25000 nM | GI50 (SK-MEL-5 melanoma): 9.12 nM | TGI (SK-MEL-5 melanoma): 1080 nM | GI50 (OVCAR-8 ovarian): 11.4 nM | TGI (OVCAR-8 ovarian): 11800 nM | GI50 (NCI/ADR-RES ovarian): 8.12 nM | TGI (NCI/ADR-RES ovarian): 8720 nM | GI50 (NCI-H460 lung): 9.55 nM | TGI (NCI-H460 lung): 1240 nM | GI50 (786-0 renal): 41.2 nM | TGI (786-0 renal): 3110 nM | GI50 (T-47D breast): 146 nM | TGI (T-47D breast): 7760 nM | GI50 (PC-3 prostate): 14.1 nM | TGI (PC-3 prostate): > 25000 nM | GI50 (KM12 colon): 7.28 nM | TGI (KM12 colon): 3860 nM | GI50 (SK-MEL-2 melanoma): 6.79 nM | TGI (SK-MEL-2 melanoma): 5020 nM | GI50 (A549 NSCLC): 14 nM | TGI (A549 NSCLC): > 14400 nM | GI50 (HCC-2998 colon): 14.8 nM | TGI (HCC-2998 colon): 6180 nM | GI50 (SF-268 CNS): 16 nM | TGI (SF-268 CNS): 20100 nM | GI50 (SR leukemia): 7.92 nM | TGI (SR leukemia): > 6400 nM | GI50 (A498 renal): 12.1 nM | TGI (A498 renal): 194 nM | GI50 (MDA-MB-231 breast): 21 nM | TGI (MDA-MB-231 breast): > 25000 nM | GI50 (HOP-62 NSCLC): 15.8 nM | TGI (HOP-62 NSCLC): > 25000 nM | GI50 (LOX IMVI melanoma): 10.5 nM | TGI (LOX IMVI melanoma): 4370 nM | GI50 (SN12C renal): 69.2 nM | TGI (SN12C renal): > 21500 nM | GI50 (NCI-H23 lung): 10 nM | TGI (NCI-H23 lung): 4390 nM | GI50 (SNB-19 CNS): 22.5 nM | TGI (SNB-19 CNS): > 25000 nM | GI50 (COLO 205 colon): 5.44 nM | TGI (COLO 205 colon): 4580 nM | GI50 (UACC-62 melanoma): 154 nM | TGI (UACC-62 melanoma): 7430 nM | GI50 (MCF7 breast): 4.31 nM | TGI (MCF7 breast): 5600 nM | GI50 (HOP-92 NSCLC): 489 nM | TGI (HOP-92 NSCLC): 7470 nM | GI50 (CCRF-CEM leukemia): 2.5 nM | TGI (CCRF-CEM leukemia): 13100 nM | GI50 (OVCAR-4 ovarian): 3670 nM | TGI (OVCAR-4 ovarian): > 25000 nM | GI50 (OVCAR-3 ovarian): 6.64 nM | TGI (OVCAR-3 ovarian): 2150 nM
